The subject of assay [1] is primary human lung fibroblasts (HLFs). Kind of assay: Activation of human lung fibroblasts on 3 kPa hydrogels by HBEC conditioned media. Conditions: HLFs in IPF conditioned HBEC media supplemented with inhibitor. Format: cell-based. Here is the method: Culture and treatment of HLFs: Primary human lung fibroblasts (HLFs) were obtained from control lungs not suitable for transplantation at National Jewish Health. Briefly, pieces of tissue were placed into a tissue-culture dish and weighed down by a coverslip. Cells were cultured in DMEM (Corning, Corning, New York, 10-013-cv) supplemented with L-glutamine (25-005-cl), penicillin/streptomycin (Corning, Corning, New York, 30-002-c1), and 10% fetal bovine serum (ATCC®, Manassas, Virginia, 30-2020). These fibroblasts were then sub-cultured in t-75 flasks. All HLFs used in this study (N=4) were seeded at passage 3. […]
Quantitative RT-PCR Analysis: Total RNA was extracted using RNeasy® Mini kit (Qiagen, Hilden, Germany) and quantified by NanoDrop™ (ThermoFisher Scientific™, Waltham, Massachusetts).Reverse transcription was completed using the High Capacity cDNA Reverse Transcription Kit (Applied Biosystems™, Thermo Fisher Scientific™, Waltham, Massachusetts). […]
Immunofluorescence and cell number quantification for HLF experiments: For fluorescence quantification, (i.e., vimentin or alpha-SMA) images were all processed using the same settings. Fluorescence intensity was determined by channel separation and measurement of mean gray value for the field and normalized to total cell number. Cell number was determined by automated counting in ImageJ. […]

The subject of assay [2] is IPF HBECs. Nature of the assay: Induction of the unjammed-to-jammed transition (UJT) in IPF HBECs. Format: cell-based, human. Conditions: day 14 IPF HBECs. From the text:
(§1) Epithelial Cell Culture: Primary human bronchial epithelial cells (HBECs) were obtained from two sources (1) provided by Dr. Hong Wei Chu at National Jewish Health, or (2) lung transplant collection at the University of Colorado Hospital (IRB protocol: 11-1664 or 18-0572). Epithelial cells from bronchial brushes or CT-guided dissection were expanded to passage 2 before being cultured at air liquid interface (ALI). Control (N=11), IPF (N=6), and COPD (N=3) were age matched and controls had no history of chronic lung disease (Table 1). Cells were seeded on 24-Transwell plates (Corning, Corning, New York, 3470) coated with type I collagen (Corning, Corning, New York, 354236) and maintained under submerged conditions for five to seven days until the cells reached confluence. Culture media was a 1:1 mixture of DMEM and BEBM (Lonza, Basel, Switzerland, CC170) supplemented with retinoic acid (Sigma-Aldrich, Germany, R-2625) nystatin (Sigma-Aldrich, Germany N1638), and bovine serum albumin (FisherSci, Thermo Fisher Scientific, Waltham, Massachusetts BP9703100). Once confluent, apical media was removed and maintained at ALI. HBECs began recapitulating the in vivo airway, with production of mucus (6-9 days after establishing ALI) and development of a pseudostratified epithelium. Cells were switched to a starvation media (lacking supplemental epidermal growth factor, hydrocortisone, and bovine pituitary extract) 24 hours prior to experimentation.
(§2) For inhibitor, activator, and ligand treatments HBECs were cultured in a starvation media in the absence of EGF, hydrocortisone, and bovine pituitary extract for 24 hours prior to treatment initiation. Cells were then treated for 2-4 hours (with exception of AREG neutralizing antibody which was maintained in the culture media), media was aspirated, the wells were washed with warm PBS and then replaced with fresh starvation media without inhibitor/activator/ligand present, and subsequently imaged. For experiments that required subsequent media changes (96 hour) cells fresh starvation media was changed 48 hours afterwards.
(§3) Live Cell Imaging and Dynamics Measurement: To assess cellular dynamics, time-lapse microscopy and subsequent analysis were completed. Two imaging schemes were utilized: (1) images were taken every 5 minutes for 200 minutes during HBEC differentiation; (2) images were taken every 20 minutes for 48, 96, or 144 hours after HBEC experimental intervention. Phase contrast images were acquired on a Keyence BZ-X810 with a stage incubator (37° C., 5% CO2). Dynamic analysis followed previously published workflows (10-12, 22). Briefly, using phase contrast images instantaneous velocities were mapped by particle image velocimetry utilizing open source PIVLab on MATLAB. Velocity fields were obtained with 2 passes (64×64 and 32×32 pixel size interrogation window with 50% overlap) with a pixel size of 0.75488 μm using a Fast Fourier Transformation method. Trajectories from the PIV were seeded onto a grid and obtained via forward-integration of subsequent fields. These values were then used to determine mean-squared-displacement (MSD) and self-overlap order parameter (Q): MSD(Δt)= ? ri(t+Δt)−ri(t)|2 ? and Q(Δt)=N−1ΣwiNi=1 as previously published. Instantaneous room mean squared velocity (VRMS) of the monolayer was obtained as previously published: VRMS(t)=√1MΣ ? |v(t)2 ? jMj=1
(§4) Cell Shape Analysis: Cell shape measurements were achieved via cell border delineation by F-actin immunofluorescence. Images were segmented utilizing SeedWater Segmenter. Similar to previously published workflows, we segmented images which were subsequently analyzed in ImageJ for the shape index (q=Perimeter√Area) and aspect ratio (major and minor axis) for all cells within a given field of view. For each experimental condition an n≥3 was used with at least 3 independent wells per donor per treatment condition. […]

Assay [3] has as its system proximal, jammed cultures. Nature of the assay: IL-6 family cytokine induced unjamming of proximal airway epithelial cultures. The settings on record: proximal cultures pre-treated, then stimulated with IL-6 family cytokines. In kind it is cell-based, human. Here is the method: as §3, with “These values were then used to determine mean-squared-displacement (MSD) and self-overlap order parameter (Q): MSD(Δt)= ? ri(t+Δt)−ri(t)|2 ? and Q(Δt)=N−1ΣwiNi=1 as previously published. Instantaneous room mean squared velocity (VRMS) of the monolayer was obtained as previously published: VRMS(t)=√1MΣ ? |v(t)2 ? jMj=1” left out
Cell Shape Analysis: Cell shape measurements were achieved via cell border delineation by F-actin immunofluorescence. […] Similar to previously published workflows, we segmented images which were subsequently analyzed in ImageJ for the shape index (q=Perimeter√Area) and aspect ratio (major and minor axis) for all cells within a given field of view. […]

Assay [4] deals with control HBECs. Kind of assay: Induced unjamming of control HBECs at air-liquid interface (live cell imaging, cell shape). In kind it is cell-based, human.
Excerpt: as §1, §2, §3, §4

Assay [5] deals with control HBECs. Nature of the assay: Barrier function (TEER) of control HBECs. In kind it is cell-based, human. As to the method:
Barrier function measurements: The transepithelial electrical resistance (TEER) was assessed utilizing the Millicell® ERS-2 Voltohmeter (MilliporeSigma™, Burlington, Massachusetts, MERS00002). Briefly, cells were incubated with PBS with calcium and magnesium (at 37 degrees for 20 minutes prior to barrier measurement). The probe was inserted, and the resultant ohm reading was recorded. The final value was calculated by:
This value was subtracted by 100 (the resistance of a blank well) and multiplied by 0.33 (the surface area of a single well in a 24 well plate). A minimum of 3 wells were recorded per donor per treatment condition. These values were subsequently averaged per treatment and graphed.

Assay [6] deals with control HBECs. Kind of assay: Immunofluorescence of Ki67 and YAP in control HBECs. In kind it is cell-based, human. Here is the method: Immunofluorescence staining: Cells were fixed with 4% paraformaldehyde in PBS with calcium and magnesium for 30 minutes at room temperature. Cells were then washed with PBS and subsequently permeabilized (Triton™-X, at 0.1%) and blocked with 5% bovine serum albumin in PBS for 1 hour at room temperature. Cells were then incubated for >16 hours at 4 degrees with primary antibodies. Primary antibodies were aspirated, and cells were washed with PBS+0.1% Tween-20 at room temperature. Cells were then incubated for 1 hour at room temperature with secondary antibodies (1:500) and/or Phalloidin-iFluor™ 488 1:2000. Cells were stained with 4′,6-diamidino-2-phenylindole at 1:20000 (BioLegend®, San Diego, California, 422801). Subsequently, transwell membranes, or hydrogels, were removed from the well and mounted on glass slides with Fluoromount-G® (SouthernBiotech™, Birmingham, Alabama, 0100-01). Slides were then visualized using an Olympus BX63 microscope (Olympus, Tokyo, Japan).
Immunofluorescence and cell number quantification for HBEC experiments: For total fluorescence quantification (i.e., ERBB2), all images were processed in the same manner with the same microscopy settings. To determine mean fluorescence the channel of interest was separated in ImageJ, and the mean gray value was measured for the field of view and normalized by the total number of cells. Cell counting was achieved by taking 40×images and manually counting all nuclei in a field of view (approximately 200-300). The number of cells also expressing the marker of interested were then counted and normalized by the total number of cells per field. For each experiment a biological n≥3 was used with at least 5 fields of view per well and at least 2 wells being counted in total per donor.

[7] abbreviates: control HBECs by MUC5B promoter variant status.
The mark [8] stands for this setting: control HBECs, 48 hours after treatment.

For the compound `NC(=O)c1ccc(-c2nc(-c3ccc4c(c3)OCO4)c(-c3ccccn3)[nH]2)cc1` [SB431542], in assay [1], the fibroblast activation entry is given as “reduced fibroblast activation”; the “rescue of increase in cell number and pro-fibrotic gene expression” value is “none of these treatments alone were able to fully rescue the increase in cell number or the associated pro-fibrotic gene expression”.
Regarding `O=[N+]([O-])c1ccc2c(c1)S(=O)(=O)C=C2` [Stattic], in assay [2], the “induction of the UJT (jamming) in IPF epithelia” value is listed as “did not induce the UJT”. Also, the “effect of inhibitor pre-treatment on IL-6 family cytokine induced unjamming” value in assay [3] is given as “JAK/STAT signaling was dispensable for IL-6 family cytokine induced unjamming in proximal cultures”.
“AREG: Recombinant amphiregulin, low affinity EGFR ligand (R&D Systems 262-AR)”: in assay [4] (control HBECs at ALI day 14), the “ability to induce an unjammed state in control epithelia” value is on record as “only AREG treatment had the ability to induce an unjammed state”. For the same compound, in assay [4] (setting [7]), the “persistence in the unjammed state, rs35705950 GT vs GG epithelia” value is given as “persisted in the unjammed state significantly longer than GG epithelia” and the “root-mean-squared velocity, rs35705950 GT vs GG epithelia” value is on record as “higher root-mean-squared velocity than their GG counterparts”. Further, the “induction of unjammed state in mature monolayer” value in assay [4] (control HBECs treated at ALI day 28) is listed as “unjammed state was induced regardless of monolayer maturity”. The “time at which migratory capacity of control epithelia begins to diminish” value in assay [4] (treatment at day 14 of ALI) was roughly 36 h. Also, in assay [5] (control HBECs GG or GT), the “barrier function in genotype-dependent unjamming” value is “did not alter barrier function”. The “barrier function (TEER) after treatment” value in assay [5] (control HBECs at ALI day 14) is on record as “without diminishing barrier function”. The “cell type showing YAP nuclear localization” value in assay [6] (control HBECs after treatment) is on record as “predominantly in multi-ciliated cells (FOXJ1+)”. In assay [6] (setting [8]), the YAP nuclear localization entry is listed as “did lead to YAP nuclear localization” and the “proliferation (Ki67+)” value is “neither AREG nor XMU treatment resulted in increased proliferation”.

The values are drawn from patent US11933781B2, “Fibrosis model and methods of use thereof” (The Regents of the University of Colorado, priority 2020, dated 2024).
